# Data published in US20250375405A1, “N-LACTOYL-PHENYLALANINE FOR PREVENTING AND/OR TREATING ISCHEMIC HEART DISEASE AND METHOD FOR PREVENTING AND/OR TREATING ISCHEMIC HEART DISEASE” (Harbin Medical University, priority 2024, published 2025).
# How the values were obtained:
# [1] = tested on: mouse model of myocardial ischemia; assay: Mouse model of myocardial ischemia (left anterior descending coronary artery ligation), echocardiographic cardiac function; type: in vivo, mice; conditions: mouse MI model, Lac-Phe 20 mg/kg intraperitoneally, 1 week later, compared with the MI group
# Experimental: The surgery for left anterior descending coronary artery ligation was performed on mice to establish a mouse model of myocardial ischemia (MI group). […] Mice in the MI group were intraperitoneally injected with Lac-Phe (20 mg/kg), and then anesthetized 1 week later. An M-Mode echocardiogram was obtained under the guidance of B-Mode on a Doppler ultrasound Vevo2100 imaging system for small animals, and 10 or more cardiac cycles were recorded. Instrumental analysis software was used to measure various cardiac indicators of mice to assess the cardiac functions of the mice, including a left ventricular internal dimension systole (LVID), a left ventricular end systolic volume (LVESV), an inter-ventricular septum end-stolic thickness (IVS), an E/A ratio, an ejection fraction (EF), and a fraction shortening (FS).
# [2] = tested on: human umbilical vein endothelial cells (HUVECs); assay: Viability of hypoxic endothelial cells, CCK8 method; type: cell-based; conditions: Lac-Phe final concentrations 5, 10, 20 and 40 μM added 8 hours before hypoxia for 24 hours
# Experimental: The Lac-Phe was added to human umbilical vein endothelial cells (HUVECs), and 8 hours later, the HUVECs were placed in a hypoxia incubator and cultured under hypoxia for 24 hours (N2 95%, CO2 5%). The cell viability was evaluated by Cell Counting Kit-8 (CCK8) method for the normal control group (CTRL), hypoxia group (Hypoxia), and Lac-Phe-treated hypoxia group.
# [3] = tested on: HUVECs; assay: Apoptosis of hypoxic endothelial cells by flow cytometry; type: cell-based, human; conditions: Lac-Phe final concentration 20 μM, added 8 hours before hypoxia for 24 hours
# Experimental: The Lac-Phe was added to HUVECs, and 8 hours later, the HUVECs were placed in a hypoxia incubator and cultured under hypoxia for 24 hours (N2 95%, CO2 5%). The cell apoptosis was determined by flow cytometry for the normal control group (CTRL), hypoxia group (Hypoxia), and Lac-Phe-treated hypoxia group.
# [4] = tested on: HUVECs; assay: Endothelial cell migration, wound closure assay; type: cell-based, human; conditions: Lac-Phe final concentration 10 μM, 12, 24 and 36 hours, versus control with 0.1% DMSO
# Experimental: HUVECs were divided into 2 groups: a control group (CTRL, including 0.1% of dimethylsulfoxide (DMSO)), and a Lac-Phe-treated group (final concentration: 10 μM). Cell monolayers were wounded in wells of a cell culture plate along the central axis of each well by an autoclaved white pipette tip, suspended cells in each well were washed with phosphate buffered saline (PBS), and a medium without fetal bovine serum was added to each well. The wounds were photographed with an inverted microscope, that is, the wound area was recorded at 0 hour. The cells were then further incubated in a cell culture incubator at 37° C. for 12 hours, 24 hours, and 36 hours. Then, the wounds were photographed under the inverted microscope, that is, the wound area was recorded. The ImageJ software was used to quantitatively assess the wound closure (FIG. 4A-FIG. 4B).
# [5] = tested on: HUVECs; assay: Endothelial cell tube formation assay; type: cell-based, human; conditions: Lac-Phe final concentration 20 μM, 24 hours after administration
# Experimental: HUVECs were divided into 2 groups: a control group (CTRL, including 0.1% of DMSO), and a Lac-Phe-treated group (final concentration: 20 μM). 24 hours after administration, the endothelial cell tube formation assay was performed.
# It can be seen from the experimental results that Lac-Phe can increase the length of branches and the number of branch points formed from HUVECs (FIG. 5A-FIG. 5C). The above results also indicate that Lac-Phe has the potential to promote angiogenesis.
# [6] = tested on: Primary mouse cardiomyocytes; assay: Viability of hypoxic cardiomyocytes, CCK8 method; type: cell-based; conditions: Lac-Phe final concentrations 10 μM and 20 μM, hypoxia treatment for 24 hours
# Experimental: Primary mouse cardiomyocytes were divided into the following 4 groups: a control group (CTRL, including 0.1% of DMSO), a hypoxia group (a hypoxia treatment was performed for 24 hours), and hypoxia+Lac-Phe groups (cardiomyocytes were treated with Lac-Phe at final concentrations of 10 μM and 20 μM, respectively, and a hypoxia treatment was performed for 24 hours). The viability of cardiomyocytes was assayed by the CCK8 method.
# It can be seen from the experimental results that Lac-Phe has the function of protecting cardiomyocytes against hypoxic injury.
# [7] = tested on: Macrophages (RAW264.7); assay: LPS-induced pro-inflammatory cytokine expression in macrophages, qRT-PCR; type: cell-based; conditions: LPS 100 ng/ml, Lac-Phe final concentration 20 μM, 24 hours
# Experimental: Macrophages (RAW264.7) were divided into the following 3 groups: a control group (CTRL, including 0.1% of DMSO), a lipopolysaccharide (LPS)-treated group (LPS-induced inflammatory responses in macrophages, a concentration: 100 ng/ml), and an LPS+Lac-Phe-treated group (Lac-Phe was added to LPS-induced macrophages at a final concentration of 20 μM). 24 hours after administration, RNA was extracted from cells in each group, and expression levels of pro-inflammatory cytokines IL-6 and TNFα in cells in each group were determined by quantitative real-time polymerase chain reaction (qRT-PCR). […] The above results also indicate that Lac-Phe has the anti-inflammatory potential.
# [8] = tested on: experimental mice; conditions: supplementation of Lac-Phe, earlier studies; cited from earlier work
compound,measurement,setting,value
"C[C@H](O)C(=O)N[C@@H](Cc1ccccc1)C(=O)O [Lac-Phe, N-lactoyl-phenylalanine]","cardiac function (LVID, LVESV, IVS, E/A ratio, EF, FS) by echocardiogram",[1],significant improvement effect on the cardiac function
same,cell viability of hypoxic HUVECs,[2],significantly improved
same,number of apoptotic HUVECs,[3],significantly reduced
same,migration of endothelial cells (wound closure),[4],promoting the migration of endothelial cells
same,length of branches formed from HUVECs,[5],increase
same,number of branch points formed from HUVECs,[5],increase
same,viability of hypoxic cardiomyocytes,[6],significantly alleviate the hypoxic injury of cardiomyocytes
same,expression level of pro-inflammatory cytokine IL-6,[7],significantly decreased
same,expression level of pro-inflammatory cytokine TNFα,[7],significantly decreased
same,food intake of experimental mice,[8],effectively reduce the food intake
